# According to patent US8987302B2, “Treatment of hepatitis C virus related diseases using hydroxychloroquine or a combination of hydroxychloroquine and an anti-viral agent” (Panmed Ltd., priority 2010, dated 2015):
# Experiments:
# [1] = test system: HCV genotype 1b replicon; assay: HCV RNA replication in Huh7 replicon cells (RT-PCR), single drugs and combinations; type: cell-based, hepatitis C virus; details: alone, 72 hours
# [2] = test system: NiV; details: hamster, in vivo; cited from earlier work
# [3] = test system: JFH1/CsN6A4 infected Huh7 cells; assay: Microarray gene expression in JFH1/CsN6A4 infected Huh7 cells; details: for Number of genes modulated by both HCQ and CQ, Down-regulated / Number of genes modulated by both HCQ and CQ, Up-regulated: 40 μM; for Number of genes modulated by both HCQ and CQ, Down-regulated: FC≦0.5; for Number of genes modulated by both HCQ and CQ, Up-regulated: FC≧2; for number of the 118 HCV modulated genes down-regulated (FC≦0.5) by both compounds / number of the 118 HCV modulated genes up-regulated (FC≧2) by both compounds / expression of genes involved in the IFN signaling: 48 hours treatment; for expression of genes involved in the IFN signaling: IFN 100IU
# [4] = test system: HeV; details: hamster, in vivo; cited from earlier work
# [5] = test system: Huh7 harboring replicon cells; assay: Microarray gene expression in Huh7 harboring replicon cells; type: cell-based, Human; details: 10 μM
# [6] = test system: Huh 5-2 cells; details: 6.6 μM; cited from earlier work
# [7] = test system: HCV replicon-Huh-7/neo cells; assay: Replication levels of HCV replicon by NPTII quantification; details: 0.5, 1 or 10 μM, 72 hours
# [8] = test system: replicon cells; assay: Cytotoxicity, MTS assay of replicon cells; details: tested doses, 72 hours
# [9] = after either 12 hours or 48 hours of treatment
# [10] = cut-off at 12 hours and 24 hours
# [11] = 48 h of antiviral treatment, vs untreated infected cells
compound,measurement,setting,value
"CCN(CC)CCCC(C)Nc1ccnc2cc(Cl)ccc12 (stereo not drawn) [CQ, chloroquine]",HCV RNA replication,[1],inhibited HCV RNA replication
same,protection of hamsters,[2],did not protect hamsters
same,"Number of genes modulated by both HCQ and CQ, Down-regulated",[3]; 12 h,9
same,"Number of genes modulated by both HCQ and CQ, Up-regulated",[3]; 12 h,38
same,"Number of genes modulated by both HCQ and CQ, Down-regulated",[3]; 48 h,262
same,"Number of genes modulated by both HCQ and CQ, Up-regulated",[3]; 48 h,24
same,Number of genes Induced by JFH1 infection and Down-regulated by treatment,[3]; 48 h,104
same,Number of genes Induced by JFH1 infection and Up-regulated by treatment,[3]; 48 h,1
same,Number of genes Repressed by JFH1 infection and Down-regulated by treatment,[3]; 48 h,2
same,Number of genes Repressed by JFH1 infection and Up-regulated by treatment,[3]; 48 h,11
same,number of the 118 HCV modulated genes down-regulated (FC≦0.5) by both compounds,[3],106
same,number of the 118 HCV modulated genes up-regulated (FC≧2) by both compounds,[3],12
same,genes significantly up-regulated in common with HCQ and CQ,[3]; [9],62 genes
same,protection of hamsters,[4],did not protect hamsters
"CCN(CCO)CCCC(C)Nc1ccnc2cc(Cl)ccc12 (stereo not drawn) [HCQ, 2-[[4-[(7-chloro-4-quinolinyl)amino]pentyl]ethylamino]ethanol, reference compound]",HCV RNA replication,[1],inhibited HCV RNA replication in a dose dependent manner
same,"Number of genes modulated by both HCQ and CQ, Down-regulated",[3]; 12 h,9
same,"Number of genes modulated by both HCQ and CQ, Up-regulated",[3]; 12 h,38
same,"Number of genes modulated by both HCQ and CQ, Down-regulated",[3]; 48 h,262
same,"Number of genes modulated by both HCQ and CQ, Up-regulated",[3]; 48 h,24
same,Number of genes Induced by JFH1 infection and Down-regulated by treatment,[3]; 48 h,104
same,Number of genes Induced by JFH1 infection and Up-regulated by treatment,[3]; 48 h,1
same,Number of genes Repressed by JFH1 infection and Down-regulated by treatment,[3]; 48 h,2
same,Number of genes Repressed by JFH1 infection and Up-regulated by treatment,[3]; 48 h,11
same,number of the 118 HCV modulated genes down-regulated (FC≦0.5) by both compounds,[3],106
same,number of the 118 HCV modulated genes up-regulated (FC≧2) by both compounds,[3],12
same,expression of genes involved in the IFN signaling,[3],None of the genes regulated by IFN were found to be modulated
same,genes significantly down-modulated in common with HCQ and CQ,[3]; [9],271 genes
same,genes significantly up-regulated in common with HCQ and CQ,[3]; [9],62 genes
same,"Number of genes transcriptionally modulated, Down-regulated",[5]; 6 hours,5
same,"Number of genes transcriptionally modulated, Down-regulated",[5]; 12 hours,30
same,"Number of genes transcriptionally modulated, Up-regulated",[5]; 12 hours,7
same,"Number of genes transcriptionally modulated, Down-regulated",[5]; 24 hours,63
same,"Number of genes transcriptionally modulated, Up-regulated",[5]; 24 hours,23
same,number of significantly repressed genes (FC≦0.5) among the 23 modulated genes,[5]; [10],20
same,number of up-regulated genes (FC≧2) among the 23 modulated genes,[5]; [10],3
same,cell growth with respect to the untreated control,[6],more than 81%
same,"replication level of HCV replicon (% NPTII), number of HCV infected cells",[7],dose-dependent decrease
"NC(=O)c1ncn([C@@H]2O[C@H](CO)[C@@H](O)[C@H]2O)n1 [Ribavirin, ribavirin]",delay of death from viral disease,[2],approximately 5 days
same,effect on death from viral disease,[4],no significant effect
IFNα,HCV RNA replication,[1],inhibited HCV RNA replication in a dose dependent manner
same,"Fold Change, AMBRA1",[3]; [11],0.4
same,"Fold Change, ATF2",[3]; [11],0.4
same,"Fold Change, ATF3",[3]; [11],0.2
same,"Fold Change, ATF4",[3]; [11],0.5
same,"Fold Change, ATF7IP",[3]; [11],0.4
same,"Fold Change, ATG2A",[3]; [11],0.3
same,"Fold Change, ATG4B",[3]; [11],1.3
same,"Fold Change, ATG7",[3]; [11],0.9
same,"Fold Change, ATG12",[3]; [11],0.8
same,"Fold Change, BBC3",[3]; [11],0.1
same,"Fold Change, BCL3",[3]; [11],0.4
same,"Fold Change, BECN1",[3]; [11],1.4
same,"Fold Change, BMF",[3]; [11],0.2
same,"Fold Change, CXCL5",[3]; [11],1.3
same,"Fold Change, CYP1A1",[3]; [11],0.4
same,"Fold Change, CYR61",[3]; [11],0.2
same,"Fold Change, DAPK3",[3]; [11],0.3
same,"Fold Change, DDIT3",[3]; [11],0.1
same,"Fold Change, DDIT4",[3]; [11],0.3
same,"Fold Change, DUSP1",[3]; [11],0.1
same,"Fold Change, DUSP4",[3]; [11],0.2
same,"Fold Change, DUSP8",[3]; [11],0.1
same,"Fold Change, FOXO3",[3]; [11],0.5
same,"Fold Change, GABARAPL1",[3]; [11],0.4
same,"Fold Change, GADD45A",[3]; [11],0.2
same,"Fold Change, GADD45B",[3]; [11],0.1
same,"Fold Change, GADD45G",[3]; [11],0.3
same,"Fold Change, HRK",[3]; [11],0.7
same,"Fold Change, ICAM1",[3]; [11],2.0
same,"Fold Change, IKBKAP",[3]; [11],1.3
same,"Fold Change, JUN",[3]; [11],0.2
same,"Fold Change, MAP1LC3B",[3]; [11],0.4
same,"Fold Change, MYC",[3]; [11],0.3
same,"Fold Change, NFKB1",[3]; [11],0.8
same,"Fold Change, NFKBIA",[3]; [11],0.3
same,"Fold Change, NFKBIB",[3]; [11],0.4
same,"Fold Change, NFKBIE",[3]; [11],0.3
same,"Fold Change, NFKBIL2",[3]; [11],1.5
same,"Fold Change, NKIRAS1",[3]; [11],0.4
same,"Fold Change, NKIRAS2",[3]; [11],1.0
same,"Fold Change, NKRF",[3]; [11],1.0
same,"Fold Change, PDRG1",[3]; [11],0.6
same,"Fold Change, PIK3C3",[3]; [11],0.5
same,"Fold Change, PRKAA1",[3]; [11],0.3
same,"Fold Change, RELB",[3]; [11],0.4
same,"Fold Change, SESN2",[3]; [11],0.2
same,"Fold Change, SIRT1",[3]; [11],0.5
same,"Fold Change, SQSTM1",[3]; [11],0.5
same,"Fold Change, STK11",[3]; [11],0.9
same,"Fold Change, TANK",[3]; [11],1.2
same,"Fold Change, TNFRSF10B",[3]; [11],0.6
same,"Fold Change, TRAF2",[3]; [11],0.7
same,"Fold Change, TRAF4",[3]; [11],0.7
same,"Fold Change, TSC1",[3]; [11],0.6
same,"Fold Change, TSC2",[3]; [11],0.9
same,"Fold Change, UBD",[3]; [11],0.8
same,"Fold Change, ULK1",[3]; [11],0.3
same,expression of genes involved in the IFN signaling,[3],significantly increased
same,cell viability,[8],not affected
